Assay: xn = mol fraction of the nth substance listed
Conditions: 101 kPa, Liquid; for mass density: Vibrating tube method

NCCO.O=CO [2-hydroxyethylammonium formate] + CCO
Conditions | mass density [kg/m3] | speed of sound [m/s]
288.15 K, x2 = 0 | 1183.57 | 1733.9
288.15 K, x2 = 0.058 | 1172.99 | 1741.5
288.15 K, x2 = 0.098 | 1161.05 | 1723
288.15 K, x2 = 0.193 | 1135.72 | 1681.5
288.15 K, x2 = 0.296 | 1110.04 | 1639
288.15 K, x2 = 0.399 | 1079.51 | 1587.5
288.15 K, x2 = 0.5 | 1044.58 | 1529.7
288.15 K, x2 = 0.598 | 1006.57 | 1468.7
288.15 K, x2 = 0.701 | 963.374 | 1402.4
288.15 K, x2 = 0.799 | 914.502 | 1333.5
288.15 K, x2 = 0.9 | 859.222 | 1261.8
288.15 K, x2 = 0.95 | 828.585 | 1223.4
290.65 K, x2 = 0 | 1181.81 | 1727.4
290.65 K, x2 = 0.058 | 1171.33 | 1736.2
290.65 K, x2 = 0.098 | 1159.38 | 1717.6
290.65 K, x2 = 0.193 | 1134.02 | 1675.9
290.65 K, x2 = 0.296 | 1108.32 | 1633.2
290.65 K, x2 = 0.399 | 1077.76 | 1581.4
290.65 K, x2 = 0.5 | 1042.78 | 1523.3
290.65 K, x2 = 0.598 | 1004.72 | 1461.9
290.65 K, x2 = 0.701 | 961.474 | 1395.3
290.65 K, x2 = 0.799 | 912.536 | 1326
290.65 K, x2 = 0.9 | 857.183 | 1253.7
290.65 K, x2 = 0.95 | 826.503 | 1215
293.15 K, x2 = 0 | 1180.04 | 1721.3
293.15 K, x2 = 0.058 | 1169.68 | 1730.9
293.15 K, x2 = 0.098 | 1157.72 | 1712.2
293.15 K, x2 = 0.193 | 1132.33 | 1670.3
293.15 K, x2 = 0.296 | 1106.6 | 1627.4
293.15 K, x2 = 0.399 | 1076 | 1575.3
293.15 K, x2 = 0.5 | 1040.98 | 1517
293.15 K, x2 = 0.598 | 1002.88 | 1455.1
293.15 K, x2 = 0.701 | 959.571 | 1388.2
293.15 K, x2 = 0.799 | 910.569 | 1318.5
293.15 K, x2 = 0.9 | 855.141 | 1245.7
293.15 K, x2 = 0.95 | 824.416 | 1206.8
295.65 K, x2 = 0 | 1178.27 | 1715.1
295.65 K, x2 = 0.058 | 1168.03 | 1725.6
295.65 K, x2 = 0.098 | 1156.05 | 1706.8
295.65 K, x2 = 0.193 | 1130.64 | 1664.8
295.65 K, x2 = 0.296 | 1104.87 | 1621.7
295.65 K, x2 = 0.399 | 1074.24 | 1569.2
295.65 K, x2 = 0.5 | 1039.18 | 1510.6
295.65 K, x2 = 0.598 | 1001.03 | 1448.4
295.65 K, x2 = 0.701 | 957.67 | 1381.1
295.65 K, x2 = 0.799 | 908.602 | 1311
295.65 K, x2 = 0.9 | 853.093 | 1237.8
295.65 K, x2 = 0.95 | 822.326 | 1198.5
298.15 K, x2 = 0 | 1176.49 | 1709
298.15 K, x2 = 0.058 | 1166.37 | 1720.4
298.15 K, x2 = 0.098 | 1154.38 | 1701.5
298.15 K, x2 = 0.193 | 1128.94 | 1659.3
298.15 K, x2 = 0.296 | 1103.15 | 1615.9
298.15 K, x2 = 0.399 | 1072.49 | 1563.2
298.15 K, x2 = 0.5 | 1037.38 | 1504.3
298.15 K, x2 = 0.598 | 999.182 | 1441.7
298.15 K, x2 = 0.701 | 955.767 | 1374.1
298.15 K, x2 = 0.799 | 906.63 | 1303.6
298.15 K, x2 = 0.9 | 851.045 | 1229.8
298.15 K, x2 = 0.95 | 820.231 | 1190.2
300.65 K, x2 = 0 | 1174.71 | 1702.9
300.65 K, x2 = 0.058 | 1164.71 | 1715.2
300.65 K, x2 = 0.098 | 1152.72 | 1696.1
300.65 K, x2 = 0.193 | 1127.25 | 1653.7
300.65 K, x2 = 0.296 | 1101.44 | 1610.2
300.65 K, x2 = 0.399 | 1070.73 | 1557.2
300.65 K, x2 = 0.5 | 1035.58 | 1498
300.65 K, x2 = 0.598 | 997.335 | 1435.1
300.65 K, x2 = 0.701 | 953.861 | 1367
300.65 K, x2 = 0.799 | 904.657 | 1296.1
300.65 K, x2 = 0.9 | 848.99 | 1221.9
300.65 K, x2 = 0.95 | 818.13 | 1182
303.15 K, x2 = 0 | 1172.94 | 1696.8
303.15 K, x2 = 0.058 | 1163.06 | 1709.9
303.15 K, x2 = 0.098 | 1151.05 | 1690.8
303.15 K, x2 = 0.193 | 1125.56 | 1648.2
303.15 K, x2 = 0.296 | 1099.72 | 1604.4
303.15 K, x2 = 0.399 | 1068.98 | 1551.2
303.15 K, x2 = 0.5 | 1033.79 | 1491.7
303.15 K, x2 = 0.598 | 995.485 | 1428.4
303.15 K, x2 = 0.701 | 951.952 | 1360
303.15 K, x2 = 0.799 | 902.677 | 1288.7
303.15 K, x2 = 0.9 | 846.93 | 1214
303.15 K, x2 = 0.95 | 816.023 | 1173.8
305.65 K, x2 = 0 | 1171.16 | –
305.65 K, x2 = 0.058 | 1161.41 | –
305.65 K, x2 = 0.098 | 1149.39 | –
305.65 K, x2 = 0.193 | 1123.87 | –
305.65 K, x2 = 0.296 | 1098 | –
305.65 K, x2 = 0.399 | 1067.22 | –
305.65 K, x2 = 0.5 | 1031.98 | –
305.65 K, x2 = 0.598 | 993.634 | –
305.65 K, x2 = 0.701 | 950.042 | –
305.65 K, x2 = 0.799 | 900.694 | –
305.65 K, x2 = 0.9 | 844.863 | –
305.65 K, x2 = 0.95 | 813.907 | –

From the NIST ThermoML archive (doi:10.1016/j.jct.2007.05.011)
